Reference: patent publication US10947242B2, “[1,2,4]triazolo[1,5and#8208;A]pyrimidine compounds as PDE2 inhibitors” (Janssen Pharmaceutica NV, priority 2016, dated 2021)
Like-named read-outs stand apart in the source and are kept apart here.

What was measured:
[1] = target: T1, Human recombinant PDE10A (hPDE10A) (Homo sapiens, UniProt Q9Y233); assay: In vitro assay PDE10A, human clone (SPA, 3H-cAMP hydrolysis); type: biochemical; conditions: human clone by default (no (r) mark); for Emax: read-out: hPDE10A2 or rPDE10A2 Emax; for IC50: read-out: hPDE10A2 or rPDE10A2 pIC50 (converted)
T1 construct: His tag (inferred from metal chelate purification); made in house; host or cells: Sf9 insect cells (baculovirus)
Method in brief: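 Human recombinant PDE10A was expressed in Sf9 cells via baculovirus and incubated with compound in 50 mM Tris pH 7.8, 8.3 mM MgCl2, 1.7 mM EGTA. Substrate was 60 nM cAMP plus 0.008 μCi 3H-cAMP for 60 min at room temperature, read by SPA scintillation counting. Controls used 1% DMSO, and blanks omitted enzyme.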

[2] = target: T2, Human recombinant PDE3A (hPDE3A) (Homo sapiens, UniProt Q14432); assay: In vitro assay PDE3A (SPA, 3H-cAMP hydrolysis); type: biochemical; conditions: for IC50: hPDE3B pIC50, read-out: pIC50 (converted); for Emax: read-out: hPDE3B Emax, read-out: Emax;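 for all read-outs here: the method names PDE3A and the table heading PDE3B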
T2 construct: purchased Scottish Biomedical; host or cells: Sf9 insect cells
Method in brief: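 Human PDE3A, cloned from brain, as partially purified Sf9 lysate. Substrate 0.4 μM cAMP plus [3H]-cAMP (2.4 μCi/ml final) in 50 mM Tris pH 7.8, 8.3 mM MgCl2, 1.7 mM EGTA, 60 min at room temperature, 1% DMSO final. Hydrolysis read by SPA scintillation counting against no-enzyme blanks and DMSO controls.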

[3] = target: T3, Human recombinant PDE2A (hPDE2A) (Homo sapiens, UniProt O00408); assay: In vitro assay PDE2A (SPA, 3H-cGMP hydrolysis); type: biochemical; conditions: for Emax: read-out: hPDE2A Emax
T3 construct: His tag (inferred from metal chelate purification); made in house; host or cells: Sf9 insect cells (baculovirus)

[4] = target: T4, PDE2A (Rattus norvegicus, UniProt Q01062); assay: PDE2 occupancy by test compounds, ex-vivo autoradiography with [3H]B-17a; type: in vivo, Male Wistar rats; conditions: for receptor occupancy at 10 mg/kg: route PO (oral), percentage receptor occupancy, ex-vivo autoradiography, striatum
T4 construct: Twenty μm-thick striatal sections were cut; from tissue; host or cells: rat brain, striatal sections
T4 sequence (Q01062 1-928): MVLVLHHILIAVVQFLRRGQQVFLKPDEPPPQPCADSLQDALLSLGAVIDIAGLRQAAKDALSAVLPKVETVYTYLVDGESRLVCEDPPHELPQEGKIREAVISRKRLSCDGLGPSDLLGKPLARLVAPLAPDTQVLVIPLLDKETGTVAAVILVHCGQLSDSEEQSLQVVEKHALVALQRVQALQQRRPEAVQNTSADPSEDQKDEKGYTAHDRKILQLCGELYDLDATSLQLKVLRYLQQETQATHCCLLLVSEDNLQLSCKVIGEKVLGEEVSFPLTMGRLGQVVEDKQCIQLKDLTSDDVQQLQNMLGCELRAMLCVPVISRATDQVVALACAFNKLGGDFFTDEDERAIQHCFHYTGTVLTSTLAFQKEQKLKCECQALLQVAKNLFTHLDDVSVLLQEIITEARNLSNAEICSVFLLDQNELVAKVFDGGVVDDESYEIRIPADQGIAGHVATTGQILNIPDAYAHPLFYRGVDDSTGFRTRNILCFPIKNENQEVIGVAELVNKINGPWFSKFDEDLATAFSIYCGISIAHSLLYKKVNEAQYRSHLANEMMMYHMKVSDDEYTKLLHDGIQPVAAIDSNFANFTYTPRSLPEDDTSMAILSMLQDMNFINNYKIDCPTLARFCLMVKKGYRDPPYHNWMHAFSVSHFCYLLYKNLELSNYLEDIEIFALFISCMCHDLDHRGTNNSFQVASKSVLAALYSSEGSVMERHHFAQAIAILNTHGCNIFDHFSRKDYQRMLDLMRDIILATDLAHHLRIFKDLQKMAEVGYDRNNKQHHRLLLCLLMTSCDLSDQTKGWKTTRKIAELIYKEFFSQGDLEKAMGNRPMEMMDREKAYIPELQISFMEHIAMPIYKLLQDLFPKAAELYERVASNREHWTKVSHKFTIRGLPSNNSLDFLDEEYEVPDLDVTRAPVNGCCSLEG

[5] = read-out: hPDE2A pIC50 (converted)

T2 sequence (Q14432 whole entry): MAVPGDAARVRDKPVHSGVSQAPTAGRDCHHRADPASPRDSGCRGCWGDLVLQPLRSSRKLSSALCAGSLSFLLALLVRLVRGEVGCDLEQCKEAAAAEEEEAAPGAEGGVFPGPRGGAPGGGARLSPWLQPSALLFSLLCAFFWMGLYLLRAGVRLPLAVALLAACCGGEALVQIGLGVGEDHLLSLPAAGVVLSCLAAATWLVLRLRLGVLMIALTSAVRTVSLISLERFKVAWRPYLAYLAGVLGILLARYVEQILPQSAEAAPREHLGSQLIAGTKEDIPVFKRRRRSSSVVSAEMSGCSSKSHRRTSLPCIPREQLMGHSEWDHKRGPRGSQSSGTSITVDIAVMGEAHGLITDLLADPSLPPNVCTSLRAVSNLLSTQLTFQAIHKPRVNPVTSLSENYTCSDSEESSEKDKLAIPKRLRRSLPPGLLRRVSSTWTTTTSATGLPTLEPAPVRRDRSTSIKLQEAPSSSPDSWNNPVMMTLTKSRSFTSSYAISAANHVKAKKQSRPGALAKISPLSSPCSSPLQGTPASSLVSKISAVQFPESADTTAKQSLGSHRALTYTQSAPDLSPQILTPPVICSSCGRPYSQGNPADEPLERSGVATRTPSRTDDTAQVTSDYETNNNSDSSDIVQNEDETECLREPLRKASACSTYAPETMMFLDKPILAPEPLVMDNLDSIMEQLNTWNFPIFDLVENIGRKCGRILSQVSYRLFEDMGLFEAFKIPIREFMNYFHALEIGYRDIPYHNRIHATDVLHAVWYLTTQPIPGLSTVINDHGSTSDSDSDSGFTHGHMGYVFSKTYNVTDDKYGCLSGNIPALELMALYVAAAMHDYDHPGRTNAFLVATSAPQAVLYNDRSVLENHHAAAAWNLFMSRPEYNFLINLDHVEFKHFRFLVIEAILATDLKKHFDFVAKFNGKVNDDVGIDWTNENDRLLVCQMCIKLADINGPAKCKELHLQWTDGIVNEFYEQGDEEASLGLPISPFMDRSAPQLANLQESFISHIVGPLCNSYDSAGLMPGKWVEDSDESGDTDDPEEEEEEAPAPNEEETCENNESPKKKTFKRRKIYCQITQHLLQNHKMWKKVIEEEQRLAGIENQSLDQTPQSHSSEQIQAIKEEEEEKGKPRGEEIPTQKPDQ
T1 sequence (Q9Y233 267-1055): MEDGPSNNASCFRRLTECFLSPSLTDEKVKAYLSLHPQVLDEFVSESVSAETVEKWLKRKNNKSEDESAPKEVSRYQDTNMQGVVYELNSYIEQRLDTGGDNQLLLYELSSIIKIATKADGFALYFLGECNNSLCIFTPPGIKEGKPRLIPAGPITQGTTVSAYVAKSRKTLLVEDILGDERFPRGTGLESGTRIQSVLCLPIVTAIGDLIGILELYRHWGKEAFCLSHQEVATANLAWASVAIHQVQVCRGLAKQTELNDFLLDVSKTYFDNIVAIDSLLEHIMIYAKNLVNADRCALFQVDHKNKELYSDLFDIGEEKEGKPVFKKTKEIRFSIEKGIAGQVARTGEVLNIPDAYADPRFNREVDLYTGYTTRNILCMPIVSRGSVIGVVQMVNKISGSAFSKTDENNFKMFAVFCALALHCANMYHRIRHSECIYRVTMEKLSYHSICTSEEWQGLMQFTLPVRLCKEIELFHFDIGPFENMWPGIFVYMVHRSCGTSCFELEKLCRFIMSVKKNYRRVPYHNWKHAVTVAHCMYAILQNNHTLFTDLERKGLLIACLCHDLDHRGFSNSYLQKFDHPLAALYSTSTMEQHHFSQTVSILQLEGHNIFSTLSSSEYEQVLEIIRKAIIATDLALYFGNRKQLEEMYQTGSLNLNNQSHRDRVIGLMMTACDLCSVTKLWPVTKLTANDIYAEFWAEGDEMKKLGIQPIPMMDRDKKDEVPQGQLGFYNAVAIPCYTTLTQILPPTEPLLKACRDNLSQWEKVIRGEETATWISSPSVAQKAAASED
T3 sequence (O00408 whole entry): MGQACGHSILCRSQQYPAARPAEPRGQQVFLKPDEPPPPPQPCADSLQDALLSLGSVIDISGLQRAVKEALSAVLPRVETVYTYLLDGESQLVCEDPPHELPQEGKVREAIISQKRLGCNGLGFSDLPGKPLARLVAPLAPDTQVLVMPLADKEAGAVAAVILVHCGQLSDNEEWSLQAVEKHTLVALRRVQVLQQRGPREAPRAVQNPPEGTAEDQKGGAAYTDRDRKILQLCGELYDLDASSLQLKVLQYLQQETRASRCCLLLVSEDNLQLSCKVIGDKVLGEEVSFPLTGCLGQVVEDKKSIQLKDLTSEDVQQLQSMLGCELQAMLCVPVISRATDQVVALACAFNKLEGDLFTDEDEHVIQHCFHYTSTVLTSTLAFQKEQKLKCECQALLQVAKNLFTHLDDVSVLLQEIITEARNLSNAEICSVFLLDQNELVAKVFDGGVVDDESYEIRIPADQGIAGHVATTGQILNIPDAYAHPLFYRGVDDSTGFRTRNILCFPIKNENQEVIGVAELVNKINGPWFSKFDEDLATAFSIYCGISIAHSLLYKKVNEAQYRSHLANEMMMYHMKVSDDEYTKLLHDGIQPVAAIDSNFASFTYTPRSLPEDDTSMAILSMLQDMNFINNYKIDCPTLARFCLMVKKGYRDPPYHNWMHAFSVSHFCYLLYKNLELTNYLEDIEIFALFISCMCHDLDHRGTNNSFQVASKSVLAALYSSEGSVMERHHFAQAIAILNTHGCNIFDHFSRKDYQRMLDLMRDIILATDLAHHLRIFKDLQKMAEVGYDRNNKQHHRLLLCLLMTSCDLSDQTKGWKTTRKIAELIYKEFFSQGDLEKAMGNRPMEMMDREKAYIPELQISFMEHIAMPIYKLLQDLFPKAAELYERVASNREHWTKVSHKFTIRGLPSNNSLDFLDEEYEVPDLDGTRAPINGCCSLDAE

Row | Compound | Emax [1] [%] | IC50 [1] [nM] | IC50 [2] [nM] | Emax [2] [%] | Emax [3] [%] | IC50 [3, 5] [nM] | receptor occupancy at 10 mg/kg ([4]; po) [%] | melting point [°C] | IC50 ([3]; hPDE2A pIC50) [nM] | receptor occupancy at 10 mg/kg [4] [%] | ED50 ([4]; po, read-out: PDE Occupancy ED50) [mg/kg]
1 | C[C@@H]1CCN(C(=O)c2ccc3ncc(F)cc3c2)C[C@H]1c1cc(C(F)F)nc2ncnn12 [Compound 332] | 98 | 30.9 | 1200 | 90 | 99 | 4.79 | 8 | 183.18 |  |  | 
2 | C[C@@H]1CCN(C(=O)c2cc(Cl)cc(Cl)c2)C[C@H]1c1cc(C(F)F)nc2ncnn12 [Compound 334] | 98 | 100 | 2340 | 84 | 100 |  | 17 | 239.87 | 2.45 |  | 
3 | O=C(c1ccc2occc2c1)N1[C@H]2CC[C@H](c3cc(C(F)F)nc4ncnn34)[C@@H]1CC2 [Compound 353] | 94 | 977 | 4790 | 69 | 99 | 3.39 |  | 230.66 |  | 15 | 
4 | O=C(c1ccc(Cl)c(Cl)c1)N1[C@H]2CC[C@H](c3cc(C(F)F)nc4ncnn34)[C@@H]1CC2 [Compound 356] | 92 | 933 | 5890 | 65 | 99 | 5.37 |  | 187.93 |  | 51 | 5.55
5 | CCn1ccc2cc(C(=O)N3[C@H]4CC[C@H](c5cc(C(F)F)nc6ncnn56)[C@@H]3CC4)ccc21 [Compound 363] | 98 | 178 | 617 | 97 | 99 | 0.275 |  | 221.75 |  | -11 | 
